Data taken from patent US20240360178A1, “MACROCYCLIC IMMUNOMODULATORS” (Bristol-Myers Squibb Company, priority 2021, published 2024).
Positions of bridges follow the written chain, without caps; N, C: chain ends. Non-standard residues stand in square brackets, D forms with d. Residues, ends and D or L forms follow the SMILES beside them. *: point of attachment. Bip = N[C@@H](Cc1ccc(-c2ccccc2)cc1)C(=O)O; d(cisHyp) = O=C(O)[C@H]1C[C@@H](O)CN1; NMeF = CN[C@@H](Cc1ccccc1)C(=O)O; Carboxymethyl = O=C(O)C*; NMeA = CN[C@@H](C)C(=O)O; Dab = NCC[C@H](N)C(=O)O

molecular target: T1, human PD-1 (Jurkat-PD-1 cells) / PE-labeled human PD-L1-Ig (Homo sapiens, UniProt Q15116); test: Jurkat-PD-1 Cell Binding High-Content Screening Assay (CBA); Jurkat hPD1-PDL1 assay; details: Jurkat cell line over-expressing human PD-1; PE-labeled PD-L1-Ig 20 nM final; compound incubated 2 hours at 37° C.; read-out: Jurkat HPD1-PDL1 IC50
T1 construct: expressed in transfected cells; host or cells: Jurkat cell line over-expressing human PD-1
T1 sequence (Q15116 25-288): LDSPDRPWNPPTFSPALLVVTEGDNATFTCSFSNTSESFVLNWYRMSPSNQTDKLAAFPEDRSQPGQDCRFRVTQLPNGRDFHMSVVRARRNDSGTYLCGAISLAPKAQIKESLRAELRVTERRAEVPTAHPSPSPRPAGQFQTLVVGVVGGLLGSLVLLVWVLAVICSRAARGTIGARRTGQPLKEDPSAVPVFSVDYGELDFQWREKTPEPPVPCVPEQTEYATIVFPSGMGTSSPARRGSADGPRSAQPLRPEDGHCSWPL
Procedure, shortened: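 Cell binding by imaging: Jurkat line stably over-expressing human PD-1, compound pre-exposure 2 h at 37° C, PE-conjugated PD-L1-Ig 20 nM final, medium DMEM containing 10% FCS.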

IC50 [nM]	Structure (SMILES)
160	CC(C)C[C@@H]1NC(=O)[C@H](CCCNC(=N)N)NC(=O)[C@H](Cc2ccccc2)N(C)C(=O)[C@H](C)N(C)C(=O)[C@H](CCCNC(=N)N)NC(=O)[C@H](Cc2ccc(-c3ccccc3)cc2)NC(=O)[C@H](C(C)C)NC(=O)[C@H](Cc2c[nH]c3ccccc23)NC(=O)[C@H](CC(=O)O)NC(=O)[C@H](Cc2ccc(O)cc2)NC(=O)[C@H](CO)NC(=O)CSC[C@@H](C(=O)NCC(N)=O)NC(=O)[C@H](CO)NC(=O)[C@H](C(C)C)NC1=O [Example 1062] ({CH2CO}-SYDWV[Bip]R[NMeA][NMeF]RLVSCG-NH2; thioether N-14)
60	CC(C)C[C@@H]1NC(=O)[C@H](CCCNC(=N)N)NC(=O)[C@H](Cc2ccccc2)N(C)C(=O)[C@H](C)N(C)C(=O)[C@H](CCCNC(=N)N)NC(=O)[C@H](Cc2ccc(-c3ccccc3)cc2)NC(=O)[C@H](C(C)C)NC(=O)[C@H](Cc2c[nH]c3ccccc23)NC(=O)[C@H](CC(=O)O)NC(=O)[C@H](Cc2ccc(O)cc2)NC(=O)[C@H](Cc2cnc[nH]2)NC(=O)CSC[C@@H](C(=O)NCC(N)=O)NC(=O)[C@H]([C@@H](C)O)NC(=O)[C@H](C(C)C)NC1=O [Example 1317] ({CH2CO}-HYDWV[Bip]R[NMeA][NMeF]RLVTCG-NH2; thioether N-14)
50	CC(C)C[C@@H]1NC(=O)[C@H](C)NC(=O)[C@H]2CCCN2C(=O)[C@H](C)N(C)C(=O)[C@H](CCC(=O)O)NC(=O)[C@H](Cc2ccc(-c3ccccc3)cc2)NC(=O)[C@H](CC(C)C)NC(=O)[C@H](Cc2c[nH]c3ccccc23)NC(=O)[C@H](CC(=O)O)NC(=O)[C@H](Cc2ccc(O)cc2)NC(=O)[C@H](Cc2ccccc2)NC(=O)CSC[C@@H](C(=O)N[C@@H](C)C(N)=O)NC(=O)[C@H](CO)NC(=O)[C@H](C(C)C)NC1=O [Example 1028] ({CH2CO}-FYDWL[Bip]E[NMeA][dP]ALVSCA-NH2; thioether N-14)
80	CC(C)C[C@@H]1NC(=O)[C@H](Cc2c[nH]c3ccccc23)NC(=O)[C@H](CC(=O)O)NC(=O)[C@H](Cc2ccc(OCC(=O)O)cc2)NC(=O)[C@H](Cc2ccc(OCC(=O)O)cc2)NC(=O)CSC[C@@H](C(=O)N[C@@H](C)C(N)=O)NC(=O)[C@H](CO)NC(=O)[C@H](C(C)C)NC(=O)[C@H](CC(C)C)NC(=O)[C@H](CC(N)=O)NC(=O)[C@H]2CCCN2C(=O)[C@H](C)N(C)C(=O)[C@H](C(C)C)NC(=O)[C@H](Cc2ccc(-c3ccccc3)cc2)NC1=O [Example 1432] ({CH2CO}-Y(Carboxymethyl)Y(Carboxymethyl)DWL[Bip]V[NMeA][dP]NLVSCA-NH2; thioether N-14)
480	CC(C)C[C@@H]1NC(=O)[C@H](Cc2c[nH]c3ccccc23)NC(=O)[C@H](CC(=O)O)NC(=O)[C@H](Cc2ccc(O)cc2)NC(=O)[C@H](Cc2ccccc2)NC(=O)CSC[C@@H](C(=O)N[C@@H](C)C(N)=O)NC(=O)[C@H](CO)NC(=O)[C@H](C(C)C)NC(=O)[C@H](CC(C)C)NC(=O)[C@H](CC(N)=O)NC(=O)[C@H]2C[C@@H](O)CN2C(=O)[C@H](C)N(C)C(=O)[C@H](C(C)C)NC(=O)[C@H](Cc2ccc(-c3ccccc3)cc2)NC1=O [Example 1126] ({CH2CO}-FYDWL[Bip]V[NMeA][d(cisHyp)]NLVSCA-NH2; thioether N-14)
790	CC(C)C[C@@H]1NC(=O)[C@H](CCCNC(=N)N)NC(=O)[C@H](Cc2ccccc2)N(C)C(=O)[C@H](C)N(C)C(=O)[C@H](CCCNC(=N)N)NC(=O)[C@H](Cc2ccc(-c3ccccc3)cc2)NC(=O)[C@H](C(C)C)NC(=O)[C@H](Cc2c[nH]c3ccccc23)NC(=O)[C@H](CC(=O)O)NC(=O)[C@H](Cc2ccc(O)cc2)NC(=O)[C@H](Cc2ccccc2)NC(=O)CSC[C@@H](C(=O)NCC(N)=O)NC(=O)[C@H](CCN)NC(=O)[C@H](C(C)C)NC1=O [Example 1332] ({CH2CO}-FYDWV[Bip]R[NMeA][NMeF]RLV[Dab]CG-NH2; thioether N-14)
